Assay results reported in patent US20160368873A1, “Optically Active Form of Mepenzolate, and Ameliorating Agent for Chronic Obstructive Pulmonary Disease Which Contains Same as Active Ingredient” (LTT BIO-PHARMA CO., LTD., priority 2014, published 2016).

Key:
ICR mice [1] = experiment: Effect on porcine pancreatic elastase (PPE)-induced inflammation (1) (Test Example 4.1); assay type: in vivo; conditions: 38 μg/kg via the airway once, PPE 100 μg per mouse 1 h later, BALF 24 h after PPE, FIG. 8
Experimental: Then, broncho alveolar lavage fluid (BALF) was collected from the lung 24 hours after administration of porcine pancreatic elastase and a total cell count and a neutrophil count were measured.

ICR mice [2] = experiment: Fecal pellet output (level of constipation occurrence) after application of stress (Test Example 5); assay type: in vivo; conditions: 4.7 mg/kg intratracheally, 1 h later one-hour restraint stress, FIG. 15
Experimental: 4 to 6 week old ICR mice were put under stress by placing the mice in a 50 mL tube for one hour, the tube ensuring free breathing but restraining free movement, and the fecal pellet output (the level of constipation occurrence) at that time was measured.
The level of constipation occurrence was monitored by measuring the fecal pellet output during the above-mentioned period.

ICR mice [3] = experiment: Effect on PPE-induced inflammation (3), cytokine and chemokines in BALF by ELISA (Test Example 4.3); assay type: in vivo; conditions: 38 μg/kg via the airway, PPE 20 U/kg, FIGS. 11 to 14
Experimental: The levels of cytokine and chemokine in broncho alveolar lavage fluid (BALF) were measured as indications of an effect on PPE-induced inflammation.
Specifically, TNF-α ([…]), which is a pro-inflammatory cytokine, was measured as a cytokine that is an inflammatory factor and a macrophage inflammatory protein (MIP-2), a monocyte chemotactic protein (MCP-1), and a keratinocyte-derived chemokine (KC) were measured as an inflammatory chemokine.
The measurement of such a cytokine and chemokines in the BALF was performed by ELISA.

ICR mice [4] = experiment: Effect on methacholine-induced airway constriction (1) (Test Example 3.1); assay type: in vivo; conditions: 3.75 μg/kg via the airway, 1 h before nebulized methacholine, FIG. 5
Experimental: (§1) Increase in airway resistance induced by methacoline was measured.
4 to 6 week old ICR mice received 1 mg/mL methacoline by nebulization over 20 seconds and this was repeated five times. After each administration of methacoline was completed, the airway resistance was measured by a snap shot technique. All the data were analyzed by using FlexiVent software.
(§2) One hour after administration, the mice received five exposures to nebulized methacoline by the above-mentioned method and the airway resistance at the time of each administration was measured.

ICR mice [5] = experiment: Effect on methacholine-induced airway constriction (2) (Test Example 3.2); assay type: in vivo; conditions: 3.8 μg/kg via the airway, 1 h before nebulized methacholine, FIG. 7
Experimental: as §1
4 to 6 week old ICR mice were anesthetized with chloral hydrate (500 mg/kg), a tracheostomy was performed, and a metal tube […] in diameter was inserted into the trachea.
The mice were mechanically ventilated at 150 respirations/minute with a displacement per one cycle of 8.7 mL/kg and a positive end-expiratory pressure of 2 to 3 cmH2O.
The mice were exposed to nebulized methacholine (5 mg/kg) for 20 seconds four times at intervals of 40 seconds to induce airway resistance by methacholine, and the airway resistance was measured by a snap shot technique.
as §2
The data were analyzed by using FlexiVent software.

[6] = Concentration in lung tissue after airway administration (Test Example 1); assay type: in vivo; conditions: ICR mice, airway administration 20 mg/kg, chiral HPLC
Experimental: The test samples were divided into 300 μL aliquots and subjected to ultrafiltration using an Amicon ultra-0.5 centrifugal filter.
The HPLC conditions were as follows.
Detector: Waters 2695 Alliance separation module and Waters 2996 photodiode array detector (manufactured by Waters Corporation)
Eluent: Solvent A (Water containing 0.1 M hexafluorophosphate)/Solvent B (acetonitrile)
Mobile Phase: 70% Solvent A/30% Solvent B
Measuring wavelength: 220 nm

ICR mice [7] = experiment: Effect on porcine pancreatic elastase (PPE)-induced inflammation (2) (Test Example 4.2); assay type: in vivo; conditions: 7.5 μg/kg and 38 μg/kg via the airway once, PPE 20 U/kg 1 h later, BALF 6 h after PPE; for Total cell count in BALF: FIG. 9; for Neutrophil count in BALF: FIG. 10
Experimental: Then, broncho alveolar lavage fluid (BALF) was collected from the lung 6 hours after administration of porcine pancreatic elastase. The BALF was collected by washing the lung twice with saline containing heparin (50 U/mL) with the aid of a tracheostomy tube.
A total cell count of the collected BALF was measured by hemocytometer. The cells were centrifuged by using Cytospin 4 (registered trademark, manufactured by Thermo Electron Corporation) and then fixed with Diff-Quik reagent, and the neutrophil count was determined on the basis of the ratio of the neutrophil count to the total cell count.

[8] = biological target: T1, human M3 muscarinic receptor (Homo sapiens, UniProt P20309); experiment: Receptor binding ability (in vitro) (1), [3H]NMS competitive inhibition (Test Example 2.1); conditions: CHO-K1 membrane fraction, 2.0 nM [3H]NMS
T1 construct: expressed in transfected cells; host or cells: CHO-K1 cells (membrane fraction)
Experimental: Nonspecific binding was measured in the presence of 1 μM atropine.
The resulting filter, which was dried and a solid scintillator, MeltiLex A (manufactured by PerkinElmer, Inc.) was melted thereon, was measured and quantified by using a β-counter (MicroBeta microplate scintillation counter (Trilux: manufactured by PerkinElmer, Inc.).

[9] = biological target: T2, human M3 muscarinic receptor (hM3R) (Homo sapiens, UniProt P20309); experiment: Receptor binding ability (in vitro) (2), [3H]NMS competitive inhibition, hM3R (Test Example 2.2); conditions: Table 2 and FIG. 3, compared to (R)-mepenzolate bromide and the racemate
T2 construct: expressed in transfected cells; host or cells: CHO-K1 cells (membrane fraction)
T2 sequence (P20309 whole entry): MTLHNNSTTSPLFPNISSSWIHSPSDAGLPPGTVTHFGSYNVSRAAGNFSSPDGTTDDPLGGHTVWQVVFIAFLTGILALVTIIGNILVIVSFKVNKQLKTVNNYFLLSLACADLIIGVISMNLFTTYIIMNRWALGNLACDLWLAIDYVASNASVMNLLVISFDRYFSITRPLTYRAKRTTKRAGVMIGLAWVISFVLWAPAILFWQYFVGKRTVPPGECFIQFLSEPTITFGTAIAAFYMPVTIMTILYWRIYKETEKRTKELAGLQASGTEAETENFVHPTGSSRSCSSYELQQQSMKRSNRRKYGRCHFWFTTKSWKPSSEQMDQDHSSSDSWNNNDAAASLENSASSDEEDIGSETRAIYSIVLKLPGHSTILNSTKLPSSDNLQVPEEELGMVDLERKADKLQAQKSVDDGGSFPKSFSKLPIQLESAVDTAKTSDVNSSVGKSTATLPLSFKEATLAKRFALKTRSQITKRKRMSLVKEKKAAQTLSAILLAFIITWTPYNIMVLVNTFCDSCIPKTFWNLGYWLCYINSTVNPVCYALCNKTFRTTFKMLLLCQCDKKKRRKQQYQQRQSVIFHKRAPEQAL
Experimental: Membrane fractions of CHO—K1 cells overexpressing a human M3 muscarinic receptor (hM3R) or CHO—K1 cells overexpressing a human M2 muscarinic receptor (hM2R) were used to measure receptor binding ability by competitive inhibition assay with 1-[N-methyl-^3H]scopolamine methyl bromide ([^3H]NMS, specific activity: 85.5 Cimmol). The protein concentration of the cell membrane was 10.0 μg/well and the [^3H]NMS concentration was 2.0 nM.
A binding buffer (phosphate buffer/saline) was added to the reagents to make a total volume of 200 μL. […]
The resulting filter was dried for 30 minutes, and then, fixed to a solid scintillator, MeltiLex A (melt-on scintillation sheet; manufactured by PerkinElmer, Inc.). The radioactivity remaining on the filter was measured in a MicroBeta Trilux microplate scintillation counter (manufactured by PerkinElmer, Inc.).
An experimental IC50 was calculated by using an experimentally obtained constant (κd) of [^3H]NMS for hM3R or hM2R and the concentration thereof, and then, the affinity at equilibrium was determined as a competitive equilibrium dissociation constant (κi) value. In this regard, the κi value was calculated from three individual curves and modified by using Prism (produced by GraphPad Software, Inc.).

T1 sequence (P20309 whole entry): as above

C[N+]1(C)CCC[C@@H](OC(=O)C(O)(c2ccccc2)c2ccccc2)C1.[Br-] [R-form, (3R)-3-[(hydroxy) (diphenyl)acetoxy]-1,1-dimethylpiperidinium bromide]
Neutrophil count in BALF (ICR mice [1]): relatively stronger effect of decreasing
Total cell count in BALF (ICR mice [1]): relatively stronger effect of decreasing
Level of constipation occurrence (fecal pellet output) (ICR mice [2]): highest level of constipation occurrence
Inflammatory factors in BALF (TNF-α, MIP-2, MCP-1, KC) (ICR mice [3]): decreased inflammatory factors effectively
Effect of suppressing airway resistance (methacholine-induced) (ICR mice [4]): significant effect of suppressing airway resistance
Effect of suppressing airway resistance (methacholine-induced), low dose (ICR mice [5]): significant effect of suppressing airway resistance
Concentration in lung tissue, (R)-Mep, 5 min. ([6]; 5 min after administration, (R)-Mep detected): 44.5 ± 11.5 μg/lung
Concentration in lung tissue, (R)-Mep, 15 min. ([6]; 15 min after administration, (R)-Mep detected): 6.3 ± 4.2 μg/lung
Concentration in lung tissue, (R)-Mep, 30 min. ([6]; 30 min after administration, (R)-Mep detected): 5.1 ± 1.3 μg/lung
Total cell count in BALF (ICR mice [7]): effect of decreasing
Neutrophil count in BALF (ICR mice [7]): effect of decreasing
Binding to the M3 receptor (FIG. 1), in words [8]: bound strongly to the M3 receptor

C[N+]1(C)CCC[C@@H](OC(=O)C(O)(c2ccccc2)c2ccccc2)C1.[Br-] (racemic) [racemate, mepenzolate bromide, reference compound]
Neutrophil count in BALF (ICR mice [1]): similarly effective
Total cell count in BALF (ICR mice [1]): similarly effective
Inflammatory factors in BALF (TNF-α, MIP-2, MCP-1, KC) (ICR mice [3]): decreased inflammatory factors effectively
Total cell count in BALF (ICR mice [7]): effect of decreasing
Neutrophil count in BALF (ICR mice [7]): effect of decreasing
Binding to the M3 receptor (FIG. 1), in words [8]: bound strongly to the M3 receptor

C[N+]1(C)CCC[C@H](OC(=O)C(O)(c2ccccc2)c2ccccc2)C1.[Br-] [S-form, (3S)-3-[(hydroxy) (diphenyl)acetoxy]-1,1-dimethylpiperidinium bromide]
Neutrophil count in BALF (ICR mice [1]): similarly effective
Total cell count in BALF (ICR mice [1]): similarly effective
Level of constipation occurrence (fecal pellet output) (ICR mice [2]): low level of constipation occurrence
Inflammatory factors in BALF (TNF-α, MIP-2, MCP-1, KC) (ICR mice [3]): decreased inflammatory factors effectively
Effect of suppressing airway resistance (methacholine-induced) (ICR mice [4]): little effect
Effect of suppressing airway resistance (methacholine-induced), low dose (ICR mice [5]): little effect
Affinity to hM3R (M3 receptor), in words [9]: lower affinity
Concentration in lung tissue, (S)-Mep, 5 min. ([6]; 5 min after administration, (S)-Mep detected): 36.4 ± 9.5 μg/lung
Concentration in lung tissue, (S)-Mep, 15 min. ([6]; 15 min after administration, (S)-Mep detected): 7.6 ± 0.5 μg/lung
Concentration in lung tissue, (S)-Mep, 30 min. ([6]; 30 min after administration, (S)-Mep detected): 6.2 ± 0.4 μg/lung
Total cell count in BALF (ICR mice [7]): effect of decreasing
Neutrophil count in BALF (ICR mice [7]): effect of decreasing
Binding to the M3 receptor (FIG. 1), in words [8]: weaker binding ability
